Patent publication US20130310396A1, “THIAZOLIDINE DERIVATIVES AND THEIR THERAPEUTIC USE” (priority 2011, published 2013)

Experiment: in vitro
Format: in vitro ADME
Conditions: human liver microsomes, 0.5 mg/mL microsomal protein, 1 mM NADPH, 37° C., N=1; for half-life: both sexes
Experimental: The liver microsomes stability of compounds of Examples 1, 4 and 5 were compared with Teneligliptin.
The metabolic stability of compounds of the invention was tested using pooled liver microsomes prepared from mixed-gender humans, with 1 mM NADPH. The samples were analyzed using an LTQ-Orbitrap XL mass spectrometer. HRMS was used to determine the peak area response ratio (peak area corresponding to test compound or control divided by that of an analytical internal standard) without running a standard curve. HRMS scan was performed in an appropriate m/z range in order to detect all plausible metabolites.
The assay was run with a single incubation (N=1). Incubated test compounds at 37° C. in a buffer solution containing 0.5 mg/mL microsomal protein. Initiated the reaction by adding cofactors, sampling at 0, 10, 20, 30, and 60 minutes. Incubated positive control (5 μM testosterone) in parallel and sampling at 0, 5 10, and 30 minutes.
The control compound testosterone was run in parallel to verify the enzymatic activity of the microsomes. After the final time point, fluorimetry was used to confirm the addition of NADPH to the reaction mixture. T1/2 of control met the internal acceptance criteria.
Column: Thermo BDS Hypersil C18 30×2.0 mm, 3 μm, with guard column M.P. Buffer: 25 mM ammonium formate buffer, pH 3.5 Aqueous Reservoir (A): 90% water, 10% buffer Organic Reservoir (B): 90% acetonitrile, 10% buffer

| half-life [min] | Percentage Remaining 0 min [%] | Percentage Remaining 10 min [%] | Percentage Remaining 20 min [%] | Percentage Remaining 30 min [%] | Percentage Remaining 60 min [%] | SMILES |
| --- | --- | --- | --- | --- | --- | --- |
| > 60 | 100 | 95 | 87 | 75 | 65 | [2H]c1ccc(-n2nc(C)cc2N2CCN([C@@H]3CN[C@H](C(=O)N4CCSC4)C3)CC2)cc1 [Example 4, ((2S,4S)-4-(4-(1-(4-D-Phenyl)-3-methyl-1H-pyrazol-5-yl)piperazin-1-yl)pyrrolidin-2-yl)(thiazolidin-3-yl)methanone] |
| > 60 | 100 | 90 | 85 | 65 | 55 | Cc1cc(N2CCN([C@@H]3CN[C@H](C(=O)N4CCSC4)C3)CC2)n(-c2ccccc2)n1 [Teneligliptin, ((2S,4S)-4-(4-(3-methyl-1-phenyl-1H-pyrazol-5-yl)piperazin-1-yl)pyrrolidin-2-yl)(thiazolidin-3-yl)methanone, reference compound] |
| > 60 | 100 | 92 | 85 | 70 | 60 | [2H]C1([2H])CSC([2H])([2H])N1C(=O)C1CC(N2CCN(c3cc(C)nn3-c3ccccc3)CC2)CN1 [Example 1, ((2S,4S)-4-(4-(3-Methyl-1-phenyl-1H-pyrazol-5-yl)piperazin-1-yl)pyrrolidin-2-yl)(2,2,4,4-D4-thiazolidin-3-yl)methanone] |
| > 60 | 100 | 90 | 87 | 70 | 60 | [2H][C@@]1(N2CCN(c3cc(C)nn3-c3ccccc3)CC2)CN[C@H](C(=O)N2CCSC2)C1 [Example 5] |
